Laboratory results from ChEMBL document CHEMBL1201862, “PubChem BioAssay data set” (2004).
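Interpolation was linear, between the two tested concentrations surrounding the appropriate level; five concentrations were tested over 48 hours in 96-well plates. GI50 is the concentration that inhibits growth by half.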 The source made the active and inactive calls. No stated cut-off is given here; in the data, active = GI50 up to about 1.1 µM and inactive = higher.

Legend:
Assay in all cases: growth of human tumour cells (NCI), 48 h
786-0 = test system: 786-0
A549 = test system: A549
CAKI-1 = test system: CAKI-1
COLO 205 = test system: COLO 205
HOP-62 = test system: HOP-62
HT-29 = test system: HT-29
IGROV-1 = test system: IGROV-1
MOLT-4 = test system: MOLT-4
Malme-3M = test system: Malme-3M
NCI-H226 = test system: NCI-H226
NCI-H23 = test system: NCI-H23
NCI-H522 = test system: NCI-H522
SF-295 = test system: SF-295
SK-MEL-28 = test system: SK-MEL-28
SK-OV-3 = test system: SK-OV-3
SNB-75 = test system: SNB-75
SW-620 = test system: SW-620
UO-31 = test system: UO-31
OVCAR-5 = test system: OVCAR-5
RPMI-8226 = test system: RPMI-8226

Structure (SMILES): N#CCC(=O)N/N=C1\C(=O)N(c2ccc(Cl)cc2)C(=O)C(=O)C1c1nc2ccccc2o1 (stereo unspecified)
- GI50 (786-0): > 100 µM (inactive)
- GI50 (A549): > 100 µM (inactive)
- GI50 (CAKI-1): > 100 µM (inactive)
- GI50 (COLO 205): > 100 µM (inactive)
- GI50 (HOP-62): > 100 µM (inactive)
- GI50 (HT-29): > 100 µM (inactive)
- GI50 (IGROV-1): > 100 µM (inactive)
- GI50 (MOLT-4): > 100 µM (inactive)
- GI50 (Malme-3M): > 100 µM (inactive)
- GI50 (NCI-H226): > 100 µM (inactive)
- GI50 (NCI-H23): > 100 µM (inactive)
- GI50 (NCI-H522): > 100 µM (inactive)
- GI50 (SF-295): > 100 µM (inactive)
- GI50 (SK-MEL-28): > 100 µM (inactive)
- GI50 (SK-OV-3): > 100 µM (inactive)
- GI50 (SNB-75): > 100 µM (inactive)
- GI50 (SW-620): > 100 µM (inactive)
- GI50 (UO-31): > 100 µM (inactive)

Structure (SMILES): CCN(CC)c1ccc2cc(C(=O)Nc3nc(C45CC6CC(CC(C6)C4)C5)cs3)c(=O)oc2c1
- GI50 (786-0): > 100 µM (inactive)
- GI50 (A549): > 100 µM (inactive)
- GI50 (CAKI-1): > 100 µM (inactive)
- GI50 (COLO 205): > 100 µM (inactive)
- GI50 (HOP-62): > 100 µM (inactive)
- GI50 (HT-29): > 100 µM (inactive)
- GI50 (IGROV-1): > 100 µM (inactive)
- GI50 (MOLT-4): > 100 µM (inactive)
- GI50 (Malme-3M): > 100 µM (inactive)
- GI50 (NCI-H226): > 100 µM (inactive)
- GI50 (NCI-H23): > 100 µM (inactive)
- GI50 (NCI-H522): > 100 µM (inactive)
- GI50 (OVCAR-5): > 100 µM (inactive)
- GI50 (RPMI-8226): > 100 µM (inactive)
- GI50 (SF-295): > 100 µM (inactive)
- GI50 (SK-MEL-28): > 100 µM (inactive)
- GI50 (SW-620): > 100 µM (inactive)
- GI50 (UO-31): > 100 µM (inactive)

Structure (SMILES): N#Cc1c(Nc2ccc(F)cc2)[n+]([O-])c2ccc(Cl)cc2[n+]1[O-]
- GI50 (786-0): 3.34 µM (inactive)
- GI50 (A549): 0.568 µM (active)
- GI50 (CAKI-1): 3.18 µM (inactive)
- GI50 (COLO 205): 1.95 µM (inactive)
- GI50 (HOP-62): 4.52 µM (inactive)
- GI50 (HT-29): 3.47 µM (inactive)
- GI50 (IGROV-1): 1.33 µM (inactive)
- GI50 (MOLT-4): 2.52 µM (inactive)
- GI50 (Malme-3M): 27.5 µM (inactive)
- GI50 (NCI-H226): 4.51 µM (inactive)
- GI50 (NCI-H23): 3.84 µM (inactive)
- GI50 (RPMI-8226): 2.72 µM (inactive)
- GI50 (SF-295): 1.85 µM (inactive)
- GI50 (SK-MEL-28): 16.1 µM (inactive)
- GI50 (SK-OV-3): 4.06 µM (inactive)
- GI50 (SNB-75): 17.7 µM (inactive)
- GI50 (SW-620): 3.78 µM (inactive)
- GI50 (UO-31): 4.58 µM (inactive)

Structure (SMILES): CC(C)(/N=N/C(C)(C)C(=O)NCCO)C(=O)NCCO
- GI50 (786-0): > 100 µM (inactive)
- GI50 (A549): > 100 µM (inactive)
- GI50 (CAKI-1): > 100 µM (inactive)
- GI50 (COLO 205): > 100 µM (inactive)
- GI50 (HOP-62): > 100 µM (inactive)
- GI50 (HT-29): > 100 µM (inactive)
- GI50 (IGROV-1): > 100 µM (inactive)
- GI50 (MOLT-4): > 100 µM (inactive)
- GI50 (Malme-3M): > 100 µM (inactive)
- GI50 (NCI-H226): > 100 µM (inactive)
- GI50 (NCI-H23): > 100 µM (inactive)
- GI50 (NCI-H522): 39.7 µM (inactive)
- GI50 (OVCAR-5): > 100 µM (inactive)
- GI50 (RPMI-8226): > 100 µM (inactive)
- GI50 (SF-295): > 100 µM (inactive)
- GI50 (SK-MEL-28): > 100 µM (inactive)
- GI50 (SK-OV-3): > 100 µM (inactive)
- GI50 (SW-620): > 100 µM (inactive)
- GI50 (UO-31): > 100 µM (inactive)

Structure (SMILES): CCOC(=O)c1nc2ccccc2n(CC)c1=O
- GI50 (A549): > 100 µM (inactive)
- GI50 (CAKI-1): > 100 µM (inactive)
- GI50 (COLO 205): > 100 µM (inactive)
- GI50 (HOP-62): > 100 µM (inactive)
- GI50 (HT-29): > 100 µM (inactive)
- GI50 (IGROV-1): > 100 µM (inactive)
- GI50 (MOLT-4): > 100 µM (inactive)
- GI50 (Malme-3M): > 100 µM (inactive)
- GI50 (NCI-H226): > 100 µM (inactive)
- GI50 (NCI-H23): > 100 µM (inactive)
- GI50 (NCI-H522): > 100 µM (inactive)
- GI50 (OVCAR-5): > 100 µM (inactive)
- GI50 (RPMI-8226): > 100 µM (inactive)
- GI50 (SF-295): > 100 µM (inactive)
- GI50 (SK-MEL-28): > 100 µM (inactive)
- GI50 (SK-OV-3): > 100 µM (inactive)
- GI50 (SW-620): > 100 µM (inactive)
- GI50 (UO-31): > 100 µM (inactive)

Structure (SMILES): O=C1OC(c2ccc(O)cc2)(c2ccc(O)cc2)c2ccc(Cl)c3cccc1c23.O=C1OC(c2ccc(O)cc2)(c2ccc(O)cc2)c2cccc3c(Cl)ccc1c23
- GI50 (A549): 18.8 µM (inactive)
- GI50 (CAKI-1): 8.51 µM (inactive)
- GI50 (COLO 205): 1.03 µM (active)
- GI50 (HOP-62): 3.94 µM (inactive)
- GI50 (HT-29): 12.2 µM (inactive)
- GI50 (IGROV-1): 12.5 µM (inactive)
- GI50 (Malme-3M): 9.55 µM (inactive)
- GI50 (NCI-H226): 12.9 µM (inactive)
- GI50 (NCI-H23): 11.1 µM (inactive)
- GI50 (OVCAR-5): 9.84 µM (inactive)
- GI50 (RPMI-8226): 12.5 µM (inactive)
- GI50 (SF-295): 12.2 µM (inactive)
- GI50 (SK-MEL-28): 4.09 µM (inactive)
- GI50 (SK-OV-3): 19.2 µM (inactive)
- GI50 (SW-620): 14.9 µM (inactive)
- GI50 (UO-31): 23 µM (inactive)

Structure (SMILES): O=C1/C(=C/c2ccccc2)CCC/C1=C\c1ccccc1 [2,6-DIBENZYLIDENECYCLOHEXANONE]
- GI50 (786-0): 12.8 µM (inactive)
- GI50 (A549): 19.6 µM (inactive)
- GI50 (CAKI-1): 23.4 µM (inactive)
- GI50 (COLO 205): 17.9 µM (inactive)
- GI50 (HOP-62): 21.7 µM (inactive)
- GI50 (HT-29): 5.87 µM (inactive)
- GI50 (IGROV-1): 13 µM (inactive)
- GI50 (MOLT-4): 3.95 µM (inactive)
- GI50 (Malme-3M): 16.5 µM (inactive)
- GI50 (NCI-H226): 18.7 µM (inactive)
- GI50 (NCI-H23): 12.8 µM (inactive)
- GI50 (OVCAR-5): 17.3 µM (inactive)
- GI50 (RPMI-8226): 1.6 µM (inactive)
- GI50 (SF-295): 10.4 µM (inactive)
- GI50 (SK-MEL-28): 16.6 µM (inactive)
- GI50 (SK-OV-3): 21.4 µM (inactive)
- GI50 (SNB-75): 20.2 µM (inactive)
- GI50 (SW-620): 2.6 µM (inactive)
- GI50 (UO-31): 18.2 µM (inactive)
